Source: ChEMBL document CHEMBL1201862, “PubChem BioAssay data set” (2004)
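How tested: cells in 96-well plates exposed to compound for 48 hours at five concentrations. GI50: concentration for 50% inhibition of growth.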 The source made the active and inactive calls. Cut-off read from the data, not from the text of the source: active = GI50 up to about 1.1 µM and inactive = higher.

Legend:
Assay in all cases: inhibition of tumour cell growth, NCI panel, 48 h
NCI-H23 = tested on: NCI-H23
HOP-62 = tested on: HOP-62
NCI-H226 = tested on: NCI-H226
MDA-MB-435 = tested on: MDA-MB-435
UO-31 = tested on: UO-31
TK-10 = tested on: TK-10
OVCAR-3 = tested on: OVCAR-3
SF-539 = tested on: SF-539
RXF 393 = tested on: RXF 393
MDA-MB-231 = tested on: MDA-MB-231
KM12 = tested on: KM12
K562 = tested on: K562
NCI-H460 = tested on: NCI-H460
HCT-116 = tested on: HCT-116
ACHN = tested on: ACHN
HCT-15 = tested on: HCT-15
SNB-19 = tested on: SNB-19
CCRF-CEM = tested on: CCRF-CEM
SW-620 = tested on: SW-620
M14 = tested on: M14

| Structure (SMILES) | GI50 (NCI-H23) | GI50 (HOP-62) | GI50 (NCI-H226) | GI50 (MDA-MB-435) | GI50 (UO-31) | GI50 (TK-10) | GI50 (OVCAR-3) | GI50 (SF-539) | GI50 (RXF 393) | GI50 (MDA-MB-231) | GI50 (KM12) | GI50 (K562) | GI50 (NCI-H460) | GI50 (HCT-116) | GI50 (ACHN) | GI50 (HCT-15) [µM] | GI50 (SNB-19) | GI50 (CCRF-CEM) | GI50 (SW-620) | GI50 (M14) |
| --- | --- | --- | --- | --- | --- | --- | --- | --- | --- | --- | --- | --- | --- | --- | --- | --- | --- | --- | --- | --- |
| CC(=O)c1c2c(c3ccccc3c1O)O[C@@H]1OCC[C@H]21 | > 100 µM (inactive) | > 100 µM (inactive) | > 100 µM (inactive) | > 100 µM (inactive) | > 100 µM (inactive) | > 100 µM (inactive) | > 100 µM (inactive) | > 100 µM (inactive) | > 100 µM (inactive) | > 100 µM (inactive) | > 100 µM (inactive) | > 100 µM (inactive) | > 100 µM (inactive) | > 100 µM (inactive) | > 100 µM (inactive) | > 100 | > 100 µM (inactive) | > 100 µM (inactive) | > 100 µM (inactive) | > 100 µM (inactive) |
| Cc1[nH]n(-c2ncc(C#N)c(=O)[nH]2)c(=O)c1CCO | > 100 µM (inactive) | > 100 µM (inactive) | > 100 µM (inactive) | > 100 µM (inactive) | > 100 µM (inactive) | > 100 µM (inactive) | > 100 µM (inactive) | > 100 µM (inactive) | > 100 µM (inactive) | > 100 µM (inactive) | > 100 µM (inactive) | > 100 µM (inactive) | > 100 µM (inactive) | > 100 µM (inactive) | > 100 µM (inactive) | > 100 | > 100 µM (inactive) | > 100 µM (inactive) | > 100 µM (inactive) | > 100 µM (inactive) |
| CC1OC(OC2C(O)COC(OC3C(C)OC(OC4C(OC(=O)[C@]56CCC(C)(C)C[C@@H]5C5=CCC7[C@@]8(C)C[C@H](O)[C@H](OC9OC(CO)C(O)C(O)C9O)[C@@](C)(CO)[C@@H]8CC[C@@]7(C)[C@]5(C)CC6)OCC(O)C4O)C(O)C3OC3OCC(O)C(O)C3O)C2O)C(O)C(O)C1O (stereo partly drawn) | 20.8 µM (inactive) | 17.8 µM (inactive) | 23.1 µM (inactive) | 21.8 µM (inactive) | 5.19 µM (inactive) | 17.3 µM (inactive) | 17.8 µM (inactive) | 18.1 µM (inactive) | 15.9 µM (inactive) | 14.7 µM (inactive) | 25.7 µM (inactive) | 42.9 µM (inactive) | 20.1 µM (inactive) | 19.9 µM (inactive) | 17.8 µM (inactive) | 28.8 | 19.1 µM (inactive) | 15.6 µM (inactive) | 14.9 µM (inactive) | 11 µM (inactive) |
| CCn1c2ccccc2c2cc(NC(=O)c3c(C)nc(O)nc3NCCNCCO)ccc21 | > 100 µM (inactive) | > 100 µM (inactive) | > 100 µM (inactive) | > 100 µM (inactive) | > 100 µM (inactive) | > 100 µM (inactive) | > 100 µM (inactive) | > 100 µM (inactive) | > 100 µM (inactive) | > 100 µM (inactive) | > 100 µM (inactive) | > 100 µM (inactive) | > 100 µM (inactive) | > 100 µM (inactive) | > 100 µM (inactive) | > 100 | > 100 µM (inactive) | > 100 µM (inactive) | > 100 µM (inactive) | > 100 µM (inactive) |
| CN1c2ccccc2S(=O)(=O)n2c(CCc3ccccc3)nnc21 | > 100 µM (inactive) | 41.2 µM (inactive) | > 100 µM (inactive) | > 100 µM (inactive) | > 100 µM (inactive) | > 100 µM (inactive) | > 100 µM (inactive) | > 100 µM (inactive) | > 100 µM (inactive) | > 100 µM (inactive) | > 100 µM (inactive) | > 100 µM (inactive) | 98.6 µM (inactive) | > 100 µM (inactive) | > 100 µM (inactive) | > 100 | > 100 µM (inactive) | > 100 µM (inactive) | > 100 µM (inactive) | > 100 µM (inactive) |
| CCOC(=O)c1cc(-c2ccc(OC)c(OC)c2)c[nH]1 | > 10 µM (inactive) | > 10 µM (inactive) | > 10 µM (inactive) | > 10 µM (inactive) | > 10 µM (inactive) | > 10 µM (inactive) | > 10 µM (inactive) | > 10 µM (inactive) | > 10 µM (inactive) | > 10 µM (inactive) | > 10 µM (inactive) | > 10 µM (inactive) | > 10 µM (inactive) | > 10 µM (inactive) | > 10 µM (inactive) | > 10 | > 10 µM (inactive) | > 10 µM (inactive) | – | > 10 µM (inactive) |
| FC(F)(F)c1ccc(C2ON=C(c3ccccc3)N2C23CC4CC(CC(C4)C2)C3)cc1 (stereo not drawn) | > 10 µM (inactive) | > 10 µM (inactive) | > 10 µM (inactive) | > 10 µM (inactive) | – | > 10 µM (inactive) | > 10 µM (inactive) | > 10 µM (inactive) | > 10 µM (inactive) | > 10 µM (inactive) | > 10 µM (inactive) | > 10 µM (inactive) | > 10 µM (inactive) | > 10 µM (inactive) | > 10 µM (inactive) | > 10 | > 10 µM (inactive) | > 10 µM (inactive) | > 10 µM (inactive) | > 10 µM (inactive) |
